Here are results for one compound from ChEMBL document CHEMBL1155158, “Early bactericidal activity of high-dose rifampin in patients with pulmonary tuberculosis evidenced by positive sputum smears” (Antimicrob Agents Chemother, 2007).

As a reminder, the Tmax is the time at which the peak concentration occurs. Broadly, the Cmax is the peak of the concentration-time curve.

The nature of series [1]: Tmax in Mycobacterium tuberculosis infected patient at 12 mg/kg. Type of series: ADME, organism-based. Also noted: dose 12 mg/kg. The following applies: human, in vivo.
Series [2] has as its system Mycobacterium tuberculosis. Briefly: Antimycobacterial activity against Mycobacterium tuberculosis infected patient assessed as sputum bacterial count at 20 mg/kg, po administered daily for 5 days. Format: functional.
The nature of series [3]: Tmax in Mycobacterium tuberculosis infected patient at 20 mg/kg, po administered daily for 5 days. Format: ADME, organism-based. Also noted: dose 20 mg/kg, route oral. The conditions noted are these: human, in vivo.
Series [4] is described as follows: clinical. The conditions noted are these: human, in vivo, 6 mg/kg.
Description: Cmax in Mycobacterium tuberculosis infected patient at 6 mg/kg
The nature of series [5]: Tmax in Mycobacterium tuberculosis infected patient at 6 mg/kg. Format: ADME, organism-based. Also noted: dose 6 mg/kg. The conditions noted are these: human, in vivo.
Series [6] in a line: clinical. The conditions noted are these: human, in vivo, 12 mg/kg.
Description: Cmax in Mycobacterium tuberculosis infected patient at 12 mg/kg
Series [7] has as its system Homo sapiens. Nature of the series: AUC (0 to infinity) in Mycobacterium tuberculosis infected patient at 3 mg/kg. Format: ADME, organism-based, Plasma. Also on record: time infinity, dose 3 mg/kg. The conditions noted are these: in vivo.
Series [8] in a line: Tmax in Mycobacterium tuberculosis infected patient at 3 mg/kg. Also on record: dose 3 mg/kg. Format: ADME, organism-based. The conditions noted are these: human, in vivo.
Series [9] is described as follows: clinical. The following applies: human, in vivo, 3 mg/kg.
Description: Cmax in Mycobacterium tuberculosis infected patient at 3 mg/kg
Series [10] relates to Homo sapiens. Nature of the series: AUC (0 to infinity) in Mycobacterium tuberculosis infected patient at 6 mg/kg. Format: ADME, organism-based, Plasma. Also on record: time infinity, dose 6 mg/kg. The following applies: in vivo.
Series [11] is described as follows: clinical. The conditions noted are these: human, in vivo, po, 20 mg/kg.
Description: Cmax in Mycobacterium tuberculosis infected patient at 20 mg/kg, po administered daily for 5 days
Series [12] deals with Mycobacterium tuberculosis. Briefly: Antimycobacterial activity against Mycobacterium tuberculosis infected patient assessed as sputum bacterial count at 600 mg, po after 2 days. Format: functional.
Series [13] concerns Mycobacterium tuberculosis. Briefly: Antimycobacterial activity against Mycobacterium tuberculosis infected patient assessed as sputum bacterial count at 20 mg/kg, po administered daily for 2 days. Format: functional.

Each structure is given as a SMILES string.

For the compound `CO[C@H]1/C=C/O[C@@]2(C)Oc3c(C)c(O)c4c(O)c(c(/C=N/N5CCN(C)CC5)c(O)c4c3C2=O)NC(=O)/C(C)=C\C=C\[C@H](C)[C@H](O)[C@@H](C)[C@@H](O)[C@@H](C)[C@H](OC(C)=O)[C@@H]1C` [RIFAMPIN], the Tmax in series [1] came out at 2.5 h; in [3], 3.27 h; in series [5], 3.67 h; in series [8] it was 3.12 h. In addition, the figures for the log10CFU/ml in [2], in series [12] and in [13] were 0.3, 0.221 and 0.44, respectively. Further, the results for the Cmax in the series “clinical [4]”, in the series “clinical [6]” and in the series “clinical [9]” were 3190 ng/mL, 13000 ng/mL and 2530 ng/mL, respectively. For the same compound, the AUC was determined as 13.1 µg/mL in the series on Homo sapiens [7] and 24.5 µg/mL with Homo sapiens [10]. The compound also displayed a Cmax at 120 h in the series “clinical [11]” of 14000 ng/mL.
